The source of these data is patent publication US8648050B2 (University of Mississippi, priority 2011, dated 2014).

Data set [1] deals with IL-1β expression by THP-1 cells. Briefly: In vitro infusion related reaction assay (IL-1β release, ELISA). The note with it: FIG. 3 or 9.
Protocol: Cells are then incubated for about 2 hours. Supernatants are collected from each well after three freeze-thaws and stored at about −70° C. until assay. Samples are assayed for IL-1β using an enzyme-linked immunosorbent assay (Cistron Biotechnology; Pine Brook, N.J.) (ELISA). The procedure involves a four-step test carried out in microtiter wells which are coated with IL-1β specific monoclonal antibody. […] There is no cross-reactivity for IL-1α, IL-2, TNF-α or interferon. […] Data are the mean of duplicate assays and are expressed in pg/mL on the basis of standards supplied by the manufacturer.
Supernatants were collected from each well after three freeze-thaws cycles and stored at −80° C. until assayed. Samples were assayed for interleukin-1β (IL-1β) using an enzyme-linked immunosorbent assay (Cistron Biotechnology; Pine Brook, N.J.).
A short description of data set [2]: In vivo renal & hemodynamic assessment. Also on record: species or system Sprague-Dawley rats. An excerpt:
In vivo renal & hemodynamic Assessment: Sprague-Dawley (Harlan Sprague Dawley) rats (224-249 g) were housed in a temperature-controlled room on a 12:12-h light-dark cycle and fed standard chow (Harlan Teklad; Madison, Wis.) and water ad libitum for a period of at least 1 week before surgical procedures and experimental treatment. All procedures and experimental designs were in accordance with the guidelines of the American Association for Accreditation of Laboratory Animal Care (AAALAC) and approved by the University of Mississippi Medical Center's Institutional Animal Care and Use Committee. Animals were anesthetized using isoflurane delivered by an anesthesia machine (Vaporizer for Forane Anesthetic: Ohio Medical Products, Madison, Wis.). A midline lower abdominal incision was made, and the bladder was cannulated with flare-tipped PE-90 tubing for urine collection. Catheters of heat-stretched PE-50 tubing were inserted into the left femoral artery and right femoral vein for blood sampling and blood pressure monitoring. After implantation, each catheter was filled with a 50:50 solution of heparin and saline and exteriorized at the back of the neck. All animals were instrumented with a specially made Silastic catheter and steel bladder as described by Gellai and Valtin for renal clearance measurements (5). On complete instrumentation, all animals were allowed to recover for a period of 4 days.
Doses studied for assessment of renal toxicity range started at 1 mg/kg as a single dose infused at 0.015 mL/min over 1 hour. Incremental increases in dose were performed until 2 mg/kg was achieved. That dose was deemed to be nephrotoxic on the basis of a 16% reduction in mean glomerular filtration rate (GFR). […] In experimental studies, animals were treated with saline for up to 1 day and then placed in modified restraining cages for renal function measurements. Each animal served as their own control, prior to receiving AmB formulations. […] The femoral vein catheter was then connected to an infusion pump. Isotonic saline containing sodium [^125I]iothalamate and para-aminohippurate (PAH) was infused intravenously at a fixed rate of 3 mL/h After a 60-minute stabilization period, two 20-minute urine collections were obtained, followed by collection of blood samples. Urine volume was determined gravimetrically. Sodium and potassium concentrations in plasma and urine were measured by flame photometry. Glomerular filtration rate and effective renal plasma flow were calculated from the radioactivity of ^125I and concentration of PAH, respectively, in plasma and urine. PAH concentration was determined colorimetrically. Arterial pressure was monitored in conscious animals with a pressure transducer connected to a Grass model 7B chart recorder for continuous recording. […]

The subject of another data set is C. albicans ATCC 44858. Briefly: Murine Candida albicans systemic infection model (survival, tissue burden). It is filed as in vivo, Balb/c mice. The protocol:
Survival in an Infection Model: Evaluation of efficacy was performed in a murine Candida albicans systemic infection model. For each experiment, an isolate of C. albicans ATCC 44858 was thawed and then incubated overnight on Sabouraud dextrose agar (Unipath Limited). One colony was transferred into 25 mL of Sabouraud dextrose broth (Unipath Limited). The broth was incubated on an orbital mixer for 8 hours at 37° C., centrifuged to pellet the organisms, and then washed and resuspended in saline. Density was adjusted using optical density at 490 nm. Initial studies were performed in which 0.15-0.2 mL saline containing this Candida strain over a range of densities was injected intravenously to determine the optimum inoculum. The 90% lethal dose (LD90) was defined as the inoculum of the organism that caused 90% mortality 10 days post-infection. The inocula for the all isolates are estimated at 3-5×10^8 CFU/mL. These inocula were used in this study.
Specific-pathogen-free Balb/c mice (age 12-20 weeks) were obtained from IFFA Credo (L'Arbresle, France). Female mice were infected with 0.15-0.2 mL of C. albicans inoculum (4×10^8 CFU/mL) by injection into the lateral tail vein and then returned to their home cages. Post-infection viability counts were performed to ensure the correct inoculum had been given. […] At time of death or animal sacrifice, vital organs (liver, spleen, heart, bladder, muscle) were isolated and transferred into 2 mL cold sterile phosphate-buffered saline. Samples were frozen at −80° C. until analysis. At batch processing time, each sample was thawed and weighed. The organs were divided into 2 batches. Organs in one batch were homogenized in a tissue grinder for 14-30 seconds and then diluted 1:10, 1:100, and 1:1000. A 100 μL aliquot of each sample was plated on Sabourauds dextrous agar and incubated at 37° in a humidified incubator. Plates were examined daily for 7 days, and colony counts were recorded from all plates each day. The second batch of organ tissue was evaluated microscopically. Leukopenia was not induced by intraperitoneal administration of cyclophosphamide at 100 mg/kg 4 days before C. albicans inoculation due to the overall success of the model and the desire to maintain competency of the immune system.
Statistical Analysis: Animal survival between treated and untreated infected animals was selected as the primary outcome measure.

Data set [3] can be described thus: Stability of AmBHP to pH and temperature during work up. It is filed as physicochemical. The source says: As a point in fact, AmBHP can be obtained with elution in ethanol containing 1% 1 N HCL (0.01 N HCl in water has a pH ˜2) if the pH during post-column work up is maintained between 5-7. Nor is the apparent purity of AmBHP adversely affected by a short exposure to pH ˜11, as occurs during solubilization with deoxycholate. However, at both extremes, AmBHP may degrade during evaporation of solvent under air/nitrogen or during lyophilization. […] During evaporation of solvent, the temperature of the heating block remained at about 40° C. or less. The presence of DMSO or DMF during drying/lyophilization or prolonged storage (even at −20° C.) may result in degradation.

A further data set is described as follows: in vivo. The note with it: Balb/c, mouse.
The conditions of data set [4]: published, cited from earlier work.
The test system of a further data set is Candida albicans. Description: Antifungal susceptibility testing of HPLC fractions, NCCLS broth microdilution (Example 1). It is filed as cell-based. The protocol:
Test Isolates: One Candida albicans isolate, American Type Culture Collection (ATCC) strain 90028, is selected.
Antifungal Susceptibility Testing: Sample MIC's are determined by broth microdilution according to NCCLS guidelines. Isolates are subcultured twice on potato dextrose agar (PDA) plates (Remei, Lenexa, Kans., USA). Fungal suspensions are prepared by transferring four to five colonies into about 5 mL of sterile about 0.9% saline. […] 100 uL of inoculum is added to each well of a microtiter tray containing 100 uL of serially diluted drug in RPMI solution. Sample concentrations of about 0.0039, about 0.0078, about 0.0156, about 0.0312, about 0.0624, about 0.125, about 0.25, about 0.5, about 1, about 2, and about 4 ug/mL are achieved. The trays are incubated in a humid, dark chamber for about 48 hours at about 35° C. […] MIC determinations are performed a minimum of two times with an additional run if the quantity of sample drug allowed for it. It is decided to determine the MFC on samples which achieved definitive MICs. After the MIC is read at 48-h, a 1 uL sample is withdrawn from each microtiter tray with a 96 pin replicator (Boekel, Feasterville, Pa.) and plated onto an RPMI agar plate. Samples are incubated in a humid, dark chamber for about 48 hours at about 35° C. MFC is determined by the complete lack of organism growth on the plate and recorded as the corresponding well in the MIC tray.
Background: Broth dilution looks for growth in wells or tubes with falling amounts of substance.

In brackets after ≈: the same amount, converted by molar mass. Entries after “also recorded” stand apart in the source; their conditions may differ. Read-outs that look alike come from different tables or passages of the source.

Regarding `CC1/C=C/C=C/C=C/C=C/C=C/C=C/C=C/C(OC2OC(C)C(O)C(N)C2O)CC2OC(O)(CC(O)CC(O)C(O)CCC(O)CC(O)CC(=O)OC(C)C(C)C1O)CC(O)C2C(=O)O` (stereo not drawn) [AmBHP, Amphotericin B Highly Purified], the “general toxicity in vivo (apparent LD50 and survival of Candida-infected mice), less than generic or lipid-complexed AmB” value is on record as “roughly 2 fold”. Further, the “cytokine (IL-1β) response, comparison in words” value in data set [1] is on record as “Less cytokine is expressed; also recorded: less of a cytokine response than did AmB; also recorded: failed to further increase cytokine release at concentrations as high as 21.6 μM”. For the same compound, the “other indices of cardio-renal function” value in data set [2] (doses 10-fold outside the range of toxicity for AmB) is given as “not adversely affected”. Besides, in data set [2] (rats, 20 mg/kg over one hour), the “mean GFR” value is given as 2.03 mL/min and the “renal function (GFR), decrease as percent control” value is given as 7.9%. Moreover, the “toxicity by ability of THP-1 cells to exclude trypan blue” value with THP-1 cells is reported as “less disruptive to the cell membrane than is commercial deoxycholate-formulated AmB”. Besides, in the data set on C. albicans ATCC 44858 (0.5 mg/kg, 5 days post infection), the “mortality in infected mice” value turned out to be 20%. In the data set with C. albicans ATCC 44858 (blood), the “activity against fungi in blood” value was “as effective against blood-borne fungi as was Pharma-Tek AmB”. Besides, the “colony counts from lungs and livers” value in the data set on C. albicans ATCC 44858 (compared to AmB) is reported as “lower colony counts”. Also, the “C. albicans tissue burden, efficacy” value in the data set with C. albicans ATCC 44858 (post-mortem liver, spleen, heart, kidney, lung and blood) was “comparable to those of Pharma-Tek® AmB and AmBLC”. For the same compound, the “stability on exposure to variations in pH” value in data set [3] (pH between ˜2 and ˜11, short-term) was “does not appear to adversely affect AmB”. In addition, the stability to temperature result in data set [3] (post-column work up) is listed as “may degrade at high temperature”.
For the compound `CC1/C=C/C=C/C=C/C=C/C=C/C=C/C=C/C(OC2OC(C)C(O)C(N)C2O)CC2OC(O)(CC(O)CC(O)C(O)CCC(O)CC(O)CC(=O)OC(C)C(C)C1O)CC(O)C2C(=O)O` (stereo not drawn) [AmB, Amphotericin B], the LD50 is around 2.5 mg/kg in the data set “in vivo”, 1.51 mg/kg in [4] (fasting mice) and 2.38 mg/kg in data set [4] (fed animals). In addition, the “LD50, average parenteral dose” value in [4] (OF-1, CD-1 and Balb/c mice) was 2.78 mg/kg. Further, in data set [4] (OF-1, CD-1 and Balb/c mice), the “LD50, range” value is 2.3 to 3.46 mg/kg. In addition, in data set [2] (rats, 2 mg/kg over one hour), the “mean GFR” value turned out to be 1.92 mL/min. Besides, in the data set with Candida albicans (100% inhibition vs control, 48 hours at 35° C., Candida albicans B311 (footnote 1), read-out: Median MIC100), the MIC was 0.25 µg/mL (≈ 0.271 µM). For the same compound, the MIC80 with Candida albicans (Candida albicans, 48 h, read-out: Median MIC80) was found to be 0.1 µg/mL (≈ 0.108 µM). Also, the MFC in the data set on Candida albicans (Candida albicans, ATCC90028, fungicidal to all cells, no growth on agar plates, footnotes 1,2: C. albicans B311, ATCC 90028) stood at 0.625 µg/mL (≈ 0.676 µM).

In general, LD50 refers to the dose at which mortality reaches 50%. One may read the MIC80 as an inhibitory concentration at the 80% level, which refers to growth in some studies and to a panel of isolates in others. A word on the MFC: it is the lowest tested concentration that kills the fungus rather than only halting it. A lower MFC goes with more potent killing.
